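A five-concentration, 48-hour dose response in 96-well plates underlies each endpoint, interpolated linearly between surrounding concentrations. TGI is the concentration that stops growth completely.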
What was measured:
Assay in all cases: NCI tumour cell line growth inhibition, 48 h
ACHN renal = tested on: ACHN renal
HCC-2998 colon = tested on: HCC-2998 colon
A549 NSCLC = tested on: A549 NSCLC
SF-295 CNS = tested on: SF-295 CNS
SF-539 CNS = tested on: SF-539 CNS
HCT-15 colon = tested on: HCT-15 colon
UO-31 renal = tested on: UO-31 renal
HOP-18 NSCLC = tested on: HOP-18 NSCLC
RPMI-8226 leukemia = tested on: RPMI-8226 leukemia
MALME-3M melanoma = tested on: MALME-3M melanoma
MOLT-4 leukemia = tested on: MOLT-4 leukemia
LOX IMVI melanoma = tested on: LOX IMVI melanoma
K-562 leukemia = tested on: K-562 leukemia
OVCAR-3 ovarian = tested on: OVCAR-3 ovarian
SNB-75 CNS = tested on: SNB-75 CNS
SW-620 colon = tested on: SW-620 colon
A498 renal = tested on: A498 renal
SNB-19 CNS = tested on: SNB-19 CNS
NCI-H460 lung = tested on: NCI-H460 lung
SK-MEL-2 melanoma = tested on: SK-MEL-2 melanoma
HCT-116 colon = tested on: HCT-116 colon
HOP-62 NSCLC = tested on: HOP-62 NSCLC
LXFL 529 NSCLC = tested on: LXFL 529 NSCLC
HOP-92 NSCLC = tested on: HOP-92 NSCLC
EKVX NSCLC = tested on: EKVX NSCLC
NCI-H522 lung = tested on: NCI-H522 lung
KM12 colon = tested on: KM12 colon
UACC-62 melanoma = tested on: UACC-62 melanoma
KM20L2 colon = tested on: KM20L2 colon
HT29 colon = tested on: HT29 colon
U251 CNS = tested on: U251 CNS
SNB-78 CNS = tested on: SNB-78 CNS
CCRF-CEM leukemia = tested on: CCRF-CEM leukemia
IGROV1 ovarian = tested on: IGROV1 ovarian
OVCAR-4 ovarian = tested on: OVCAR-4 ovarian
SN12C renal = tested on: SN12C renal
OVCAR-5 ovarian = tested on: OVCAR-5 ovarian
M14 melanoma = tested on: M14 melanoma
TK-10 renal = tested on: TK-10 renal
SF-268 CNS = tested on: SF-268 CNS
DMS 273 small cell lung = tested on: DMS 273 small cell lung
DMS 114 small cell lung = tested on: DMS 114 small cell lung
NCI-H226 lung = tested on: NCI-H226 lung
COLO 205 colon = tested on: COLO 205 colon
786-0 renal = tested on: 786-0 renal
NCI-H23 lung = tested on: NCI-H23 lung
RXF 393 renal = tested on: RXF 393 renal
OVCAR-8 ovarian = tested on: OVCAR-8 ovarian
SK-MEL-5 melanoma = tested on: SK-MEL-5 melanoma
CAKI-1 renal = tested on: CAKI-1 renal
UACC-257 melanoma = tested on: UACC-257 melanoma
DLD-1 colon = tested on: DLD-1 colon
RXF-631 renal = tested on: RXF-631 renal
SK-MEL-28 melanoma = tested on: SK-MEL-28 melanoma
M19-MEL melanoma = tested on: M19-MEL melanoma
HL-60(TB) leukemia = tested on: HL-60(TB) leukemia
SK-OV-3 ovarian = tested on: SK-OV-3 ovarian

Measured: TGI

CCC1(CN(C)C)CC/C(=C\c2ccc(OC)cc2)C1=O (stereo unspecified)
not listed: HL-60(TB) leukemia | SK-OV-3 ovarian
> 100 µM: all other assays above

NC(CCCNCc1ccccc1)C(=O)O (stereo unspecified)
not listed: HCC-2998 colon | SF-295 CNS | U251 CNS | SNB-78 CNS | OVCAR-5 ovarian | RXF 393 renal
> 100 µM: all other assays above

From PubChem BioAssay (NCI)
